Experiments:
APOBEC3A (A3A) = APOBEC3A (A3A) (Homo sapiens, UniProt P31941); assay: fluorescence ssDNA C-to-U deaminase assay; format: biochemical
APOBEC3G (A3G) = APOBEC3G (A3G) (Homo sapiens, UniProt Q9HC16); assay: fluorescence ssDNA C-to-U deaminase assay; format: biochemical
Chain of APOBEC3G (A3G) (Q9HC16 whole entry): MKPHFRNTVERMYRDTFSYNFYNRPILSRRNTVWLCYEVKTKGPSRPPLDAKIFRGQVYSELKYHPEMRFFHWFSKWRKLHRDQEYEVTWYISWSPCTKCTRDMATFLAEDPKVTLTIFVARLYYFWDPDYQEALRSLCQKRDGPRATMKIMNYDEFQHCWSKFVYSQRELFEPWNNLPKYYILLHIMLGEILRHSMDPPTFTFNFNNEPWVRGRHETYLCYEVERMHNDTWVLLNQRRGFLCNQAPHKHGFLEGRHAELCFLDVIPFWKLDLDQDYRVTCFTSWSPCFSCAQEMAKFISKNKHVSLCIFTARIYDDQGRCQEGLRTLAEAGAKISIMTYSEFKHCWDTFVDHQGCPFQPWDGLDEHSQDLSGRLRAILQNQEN

Chain of APOBEC3A (A3A) (P31941 whole entry): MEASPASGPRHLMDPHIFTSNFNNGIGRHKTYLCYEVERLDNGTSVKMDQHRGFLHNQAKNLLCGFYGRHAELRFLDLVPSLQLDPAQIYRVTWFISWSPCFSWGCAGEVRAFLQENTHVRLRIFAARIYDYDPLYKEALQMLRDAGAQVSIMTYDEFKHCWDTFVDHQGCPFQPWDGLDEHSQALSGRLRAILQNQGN

SMILES | IC50 (APOBEC3A (A3A)) [µM] | IC50 (APOBEC3G (A3G)) [µM]
S=c1[nH]ncn1N=Cc1ccc(Br)cc1 [compound 1, 4-((4-bromobenzylidene)amino)-1,2,4-triazole-3-thiol] | > 100 | 4.3 ± 1.1
Cc1nnc(S)n1NC(=O)c1ccccc1 [compound 9, N-(3-mercapto-5-methyl-1,2,4-triazol-4-yl)benzamide] | > 100 | 8.2 ± 1.2
Cc1nnc(SCc2ccccc2)n1N [compound 11, 3-(benzylthio)-5-methyl-1,2,4-triazol-4-amine] | > 100 | –
COc1ccc(C=Nn2c(C)nnc2S)cc1 [compound 8, 4-((4-methoxybenzylidene)amino)-5-methyl-1,2,4-triazole-3-thiol] | > 100 | 3.9 ± 1.2

Continued, values first:

IC50 (APOBEC3A (A3A)) [µM] | IC50 (APOBEC3G (A3G)) [µM] | SMILES
> 100 | > 100 | Nn1cnnc1S [compound 4, 4-amino-1,2,4-triazole-3-thiol]
> 100 | 6.1 ± 1.1 | Cc1nnc(S)n1N [compound 5, 4-amino-5-methyl-1,2,4-triazole-3-thiol]
> 100 | – | Cc1nnc(O)n1N [compound 7, 4-amino-5-methyl-1,2,4-triazol-3-ol]
